# Laboratory results taken from patent US5985302A, “Method for deactivating a contaminant” (priority 1998, dated 1999).
# Read-outs that look alike come from different tables or passages of the source.
# Tests used:
# [1] = tested on: Salmonella Typhimurium TA 98 strain; assay: Mutagenic activity (revertant colonies) of DNA intercalators treated with calcium hypochlorite; format: cell-based; settings: for No. colonies of revertant organisms: drug 10 ng/ml
# Description: Solutions of DNA intercalators (doxorubicin, daunorubicin and mitoxantrone)in concentrations of 10 ng/ml D5W were applied in 5 ml quantities to separate petri dishes. Two different concentrations of calcium hypochlorite, 40 g/l and 423 g/l, were applied in 1 ml. volumes separately to the anticancer drug solutions in each petri dish for a period of one minute. After thorough mixing and neutralization of the pH to 7.4 using HCl, 1 ml of each petri dish solution was applied to 35 mm petri dishes containing cultures of Salmonella Typhimurium TA 98 strain. The petri dishes containing bacteria plus overlaid mixtures of calcium hypochlorite/anticancer drug and control plates with bacteria alone were then incubated at 37° C. for 24 hours.
# [2] = format: physicochemical; settings: for Concentration by fluorescence (chromophore recovery): 10 ng on column
# Description: Treatment of the drugs with calcium hypochlorite was carried out as described in Example 1. One ml aliquots of doxorubicin, daunorubicin and mitoxantrone, separately, were taken from the petri dishes after calcium hypochlorite exposure at two different concentrations for a period of one minute. Ten (10) ng of each of the anticancer drug (based on the final concentration resulting from the addition of calcium hypochlorite to the separate petri dishes containing each anticancer agent) was added to a high performance liquid chromatography column and standard HPLC assays were carried out. A reverse phase C-18 bonded phase HPLC procedure was used. The mobile phase consisted of 30:70 CH3 CN:ammonium acetate at a flow rate of 2 ml/min., using a Varian model 5020 HPLC unit. The anticancer drugs were detected using excitation at 480 nm and emission at 550 nm with a Schoeffel model FS 970 fluoroescence detector.
# [3] = tested on: HIV-infected CD4+ human cell line (H9/IIIB); assay: HIV inactivation by dilute calcium hypochlorite; format: cell-based, HIV; human cells
# Description: The ability of dilute calcium hypochlorite to inactivate HIV was tested against an HIV-infected CD4+ human cell line (H9/IIIB).
# H9/IIIB cells (10^6 cells/ml of complete culture medium, RPMI in 10% fetal calf serum [FCS]) were exposed to an aqueous solution containing 4% by weight of calcium hypochlorite for 15 minutes; the volumetric ratio of culture medium to calcium hypochlorite solution was 1:1, or a 50% dilution of a 4% dilute calcium hypochlorite solution in culture medium containing 10% serum. The cells were subsequently washed three times with 10% FCS RPMI and plated in fresh medium and allowed to incubate at 37° C. for three days, to allow any residual live virus and/or virus-infected cells to develop after the brief exposure to the dilute calcium hypochlorite solution. The cells were again pelleted and exposed to lytic CD4+ human cell line (MOT) as a target for any viable virus. The target MOT cells will lyse when infected with HIV. These cells were then allowed to incubate an additional four days. Next, the cells were incubated with human anti-HIV antibody (prepared in accordance the procedures described in Lake DA, Sugano T, Matsumoto Y, et al: "A Hybridoma Producing Monoclonal Antibody Specific for Glycoprotein 120 kDa of Human Immunodeficiency Virus (HIV-1), Life Sciences 45:iii-x, 1989.) for one hour, and then washed and incubated with fluorescent labeled goat anti-human IgG for one hour. The method for HIV detection by formaldehyde fixation and flow cytometry was in accordance with the method described in Lifson JD, Sasaki DT, Engleman EG: "Utility of Formaldehyde Fixation for Flow Cytometry and Inactivation of the AIDS Associated Retrovirus", J Immunological Methods 86:143-149, 1986.
# As a positive control, the above procedure was followed with HIV-infected H9/IIIB cells exposed only to culture medium rather than to culture medium and calcium hypochlorite. As a negative control, the above procedure was followed with uninfected H9 cells exposed to an aqueous solution containing 4% by weight of calcium hypochlorite.
# [4] = Deactivation and decolorization of anticancer drugs by hypochlorite; settings: calcium or sodium hypochlorite
# Excerpt: In accordance with the invention, HIV infected blood, or any of a number of active anticancer drugs, can be inactivated by applying thereto an aqueous solution containing 4-40% by weight of calcium or sodium hypochlorite. HIV infected blood, as well as any anticancer agent which can undergo oxidative or alkaline degradation can be deactivated in accordance with the method of the invention. Among the anticancer agents which can be effectively deactivated are the following:
# In addition to chemically deactivating the anti-cancer drugs, the method of the invention is also effective to decolorize those, e.g., the anthracyclines, doxorubicin and daunorubicin, which are naturally red in color, and the alkylating agent mitomycin C, which is naturally purple in color, which stain fabrics which they contact. The method of the invention renders the naturally colored anticancer drugs colorless, thus preventing permanent damage to clothes or other materials which come in contact with the drugs.
# It has also been determined that HIV infected blood and most anticancer drugs can be deactivated by application of a solution of calcium or sodium hypochlorite in water at a concentration of 4% by weight.
# [5] = Towlette swabs for work surfaces contaminated by doxorubicin; settings: 5% impregnated towlette; stainless steel surface
# Excerpt: The Experimental Materials used are as described above in Example 8. A first fresh, dry test swab or towlette is impregnated with a 5.25% by weight aqueous solution of sodium hypochlorite by applying 5 (five) ml. of the sodium hypochlorite solution to the test swab. A second fresh, dry test swab or towlette is impregnated with a 5% by weight aqueous solution of sodium thiosulfate by applying 5 (five) ml. of the sodium thiosulfate solution to the test swab.
# Doxorubicin is placed on a stainless steel work surface, which should cause a red stain to appear.
# The sodium thiosulfate impregnated towlette is then wiped, or swabbed, over the work surface containing the chemically inactivated doxorubicin spill.
# [6] = tested on: HIV infected cells (H9/IIIB); assay: Towlette swabs for work surfaces contaminated by HIV infected cells; parameters: species or system HIV; human cells; settings: 5% impregnated towlette; stainless steel surface
# Excerpt: Test Swabs: 17×23 cm nylon-reinforced 4 ply, #34770, each weighing approximately 2.6 gram Terri® Wipers, manufactured by Kimberly Clark, Neenah, Wis.
# Bleach: 4% by weight aqueous solution of calcium hypochlorite.
# Sodium thiosulfate: 5% by weight aqueous solution, supplied by Tarijian Labs, Inc., Queens Village, N.Y.
# HIV infected Cells: H9/IIIB cells (10^6 cells/ml of complete culture medium, RPI in 10% fetal calf serum [FCS]), as described above in Example 6.
# A first fresh, dry test swab or towlette is impregnated with a 4.0% by weight aqueous solution of calcium hypochlorite by applying 5 (five) ml. of the calcium hypochlorite solution to the test swab. A second fresh, dry test swab or towlette is impregnated with a 5% by weight aqueous solution of sodium thiosulfate by applying 5 (five) ml. of the sodium thiosulfate solution to the test swab.
# A small amount of the HIV infected cells are placed on a stainless steel work surface.
# The sodium thiosulfate impregnated towlette is then wiped, or swabbed, over the work surface containing the inactivated virus.
# [7] = calcium hypochlorite 40 g/l, one minute
# [8] = calcium hypochlorite 423 g/l, one minute
# [9] = no calcium hypochlorite, 37° C., 24 hours
# [10] = calcium hypochlorite 0 (control)
# [11] = lower concentration of calcium hypochlorite (40 g/l), one minute
SMILES,"No. colonies of revertant organisms [1, 7]","No. colonies of revertant organisms [1, 8]","No. colonies of revertant organisms [1, 9]","Concentration by fluorescence (chromophore recovery) [2, 10]",Concentration by fluorescence (chromophore recovery) ([2]; calcium hypochlorite 40 g/l),Concentration by fluorescence (chromophore recovery) ([2]; calcium hypochlorite 423 g/l),"chemical evidence of drug [2, 11]",other results
COc1cccc2c1C(=O)c1c(O)c3c(c(O)c1C2=O)C[C@@](O)(C(=O)CO)C[C@@H]3O[C@H]1C[C@H](N)[C@H](O)[C@H](C)O1 [Doxorubicin],0 colonies,0 colonies,257 colonies,9.7 ng,0 ng,0 ng,no chemical evidence,–
[Ca+2].[O-]Cl.[O-]Cl [calcium hypochlorite],–,–,–,–,–,–,–,"No. colonies of revertant organisms, control without drug ([1]; calcium hypochlorite 40 g/l): 0 colonies; No. colonies of revertant organisms, control without drug ([1]; calcium hypochlorite 423 g/l): 0 colonies; HIV / infected cell inactivation ([3]; 4% by weight, 1:1 volumetric ratio, 15 minutes): completely inactivates; viable HIV present ([3]; after four day incubation): no viable HIV varions present; HIV antibody binding ([3]; antibody specific to the 120 kDa viral glycoprotein): no HIV antibody binding is detectable; signs of HIV infection under fluorescent microscope ([3]; fluorescent anti-HIV antibody): no signs of HIV infection; lysis of cells ([3]; non-infected and HIV infected cells, n=4 each): completely lysed"
O=C1c2c(O)ccc(O)c2C(=O)c2c(NCCNCCO)ccc(NCCNCCO)c21 [Mitoxantrone],44 colonies,0 colonies,164 colonies,10.1 ng,3.8 ng,0 ng,–,"bacterial revertant growth ([1]; lower concentration of calcium hypochlorite (40 g/l)): associated with bacterial revertant growth; degradation ([2]; lower concentration of calcium hypochlorite (40 g/l), one minute, 1 min): approximately 60%; hypochlorite concentration that may be required for substantially complete deactivation [4]: up to 40 % by weight"
O=S([O-])([O-])=S.[Na+].[Na+] [sodium thiosulfate],–,–,–,–,–,–,–,neutralization of residual sodium hypochlorite [5]: should neutralize any residual sodium hypochlorite; neutralization of residual calcium hypochlorite [6]: should neutralize any residual calcium hypochlorite
COc1cccc2c1C(=O)c1c(O)c3c(c(O)c1C2=O)C[C@@](O)(C(C)=O)C[C@@H]3O[C@H]1C[C@H](N)[C@H](O)[C@H](C)O1 [Daunorubicin],0 colonies,0 colonies,365 colonies,9.8 ng,0 ng,0 ng,no chemical evidence,–
